These results are taken from patent US9896422B2, “Tetracycline derivatives with reduced antibiotic activity and neuroprotective benefits” (Neumedics, priority 2008, dated 2018).

Where two headings read alike, the source gives them in different places.

The test system of data set [1] is E. Coli. Nature of the data set: Antimicrobial susceptibility (zone of inhibition) test, Kirby-Bauer disc diffusion. The conditions noted are these: samples 30 ug/ml, Muller-Hinton agar, about 24 hrs. The format is cell-based. How it is done:
(§1) Anti-microbial susceptibility (zone of inhibition) tests were conducted by an outside analytical laboratory. The Kirby-Bauer or disc diffusion method of assessing antimicrobial activity is an established literature procedure and was used with some modifications to the standard protocol: 1) S. Aureus and E. Coli were grown in Muller-Hinton broth and incubated at 30-35° C. for 18-24 hrs, 2) samples were diluted in sterile water for injections or pure water to achieve a concentration of 30 ug/ml and were plated in triplicate, and 3) the test plates were prepared using Muller-Hinton agar and incubated at 30-35° C. for approximately 24 hrs.
(§2) The diameters of the zone of inhibition (if present) around the test sample were measured using calibrated calipers. […] 3a has some activity (average zone of 24.45 mm) against S. Aureus.
(Agar diffusion results depend on both activity and mobility in agar.)

Data set [2] deals with S. Aureus. The data set is described as above. The data set is classed as cell-based. Conditions: for The diameter of the zone including sample: S. Aureus, samples 30 ug/ml, Muller-Hinton agar, about 24 hrs, average of triplicate; for antimicrobial activity in this assay: disc diffusion, S. Aureus and E. Coli, 30 ug/ml. The protocol: as §1, §2
Data set [3] in a line: Intravenous blood brain barrier (BBB) penetration assay in mice. The format is in vivo, CD-1 mice. The conditions noted are these: 1 mg/kg tail-vein. The protocol: Intravenous blood brain barrier (BBB) penetration of Compounds 38 and 3b in mice was assessed by an outside analytical laboratory using the standard protocol. CD-1 mice were tail-vein injected with 38 or 3b (1 mg/kg, n=3), and the plasma and brain samples were collected at 30, 60 and 180 min time intervals. The concentration of 38 and 3b in brain (ng/g tissue), plasma and the ratio of the brain concentration at each time point were determined by acetonitrile precipitation of the test compounds from the samples followed by HPLC-MS?MS analysis.
After treatment of the animals with the test compounds, plasma samples were collected by cardiac puncture. Blood aliquots (300-400 μL) were collected in lithium heparincoated tubes, mixed gently, then kept on ice and centrifuged at 2,500×g for 15 minutes at 4° C. within 1 hour of collection. Plasma was then harvested and kept frozen at −20° C. until further processing.
Immediately after blood sampling, mice were decapitated and the whole brains were quickly removed, rinsed with cold saline (0.9% NaCl, g/mL), surface vasculature ruptured, blotted with dry gauze weighed and kept on ice until further processing within 1 hour of collection. Each brain was homogenized in 1.5 mL cold phosphate-buffered saline, pH 7.4, for 10 seconds on ice using a POWERGEN 125 homogenizer. Each sample was then stored at −20° C. until further processing.
Brain homogenates collected as above were processed by adding an equal volume of chilled 26% (g/mL) neutral Dextran (average MW 65,000-85,000, from Sigma, catalog number D-1390) solution to obtain a final Dextran concentration of 13%. The homogenate was centrifuged at 5400×g for 15 minutes at 4° C. Supernatents were subsequently processed using acetonitrile precipitation and analyzed by HPLC-MS. A brain calibration curve was generated by spiking drug-free brain homogenate from the control animals with test compound at specified concentration levels. The spiked brain homogenate samples were processed together with the unknowns using the same procedure. Processed brain samples were stored frozen (−20° C.) until LC-MS/MS analysis.
Plasma samples collected as above were processed and analyzed as for the brain homogenate supernatents described above.
After processing, all samples were analyzed using HPLC-MS/MS analysis. HPLC analysis employed a Synergi Max-RP 80 HPLC column (2×50 mm, 4 μm, Phenomenex Part No. 00B-4337-B0), using a first mobile phase of 13.3 mM ammonium formate/6.7 mM formic acid in water, and a second mobile phase of 6 mM ammonium formate/3 mM formic acid in water/CH3CN (1/9, v/v). MS/MS analysis was done on a TSQ QUANTUM with selected reaction monitoring, positive ion mode, using a capillary temperature of 325° C. and a capillary voltage of 4.0 kV. Peak areas were recorded, and the concentrations of the test compound in the unknown brain samples were determined using the respective calibration curves.

Data set [4] is described as follows: Stability testing in solution. The data set is classed as physicochemical. The conditions noted are these: de-ionized water, saline and PBS at pH of about 3 to 7.5. The protocol:
Compounds of the present invention will be stable in solution and/or in powder form. To test for stability in different solutions (e.g., de-ionized water, de-ionized water adjusted with K2HPO4 to pH 7.4, de-ionized water adjusted with NaOH to pH 9, saline solution or PBS). The compounds are tested for degradation at different times at different temperatures. By way of example, compound 3b was stable in de-ionized water saline and PBS at pH of about 3 to 7.5.

For the compound `CN(C)c1cc2ncoc2c2c1C[C@H]1C[C@H]3[C@H](N(C)C)C(O)=C(C(N)=O)C(=O)[C@@]3(O)C(O)=C1C2=O` [Compound 3a, (6aR,7aS,8S,11aS)-5,8-bis(dimethylamino)-9,11a,12trihydroxy-11,13-dioxo-6,6a,7,7a,8,11,11a,13-octahydrotetraceno[2,1-d]oxazole-10carboxamide], in data set [1], the “The diameter of the zone including sample” value (shortened to “The diameter”) is “no zone”.
Take `CN(C)c1cc2c(c3c1C[C@H]1C[C@H]4[C@H](N(C)C)C(O)=C(C(N)=O)C(=O)[C@@]4(O)C(O)=C1C3=O)OCC(=O)N2` [Compound 38, (6aR,7aS,8S,11aS)-5,8-bis(dimethylamino)-9,11a,12-trihydroxy-2,11,13trioxo-2,3,6,6a,7,7a,8,11,11a,13-decahydrotetraceno[2,1-d]morpholine-10-carboxamide]: the “The diameter” value in data set [1] and in data set [2] was “no zone” in each case. In data set [2], the “antimicrobial activity in this assay” value is given as “no antimicrobial activity”.
As for `CN(C)c1cc2[nH]c(=O)oc2c2c1C[C@H]1C[C@H]3[C@H](N(C)C)C(O)=C(C(N)=O)C(=O)[C@@]3(O)C(O)=C1C2=O` [Compound 3b, (6aR,7aS,8S,11aS)-5,8bis(dimethylamino)-9,11a,12-trihydroxy-2,11,13-trioxo-2,3,6,6a,7,7a,8,11,11a,13decahydrotetraceno[2,1-d]oxazole-10-carboxamide], the “The diameter” value in data set [1] and in data set [2] was “no zone” each time. In data set [2], the “antimicrobial activity in this assay” value was “no antimicrobial activity”. For the same compound, the “blood brain barrier penetration in vivo” value in data set [3] is recorded as “acceptable”. Further, in data set [3] (180 min, n=3), the “concentration in the brain” value is “below the limit of quantitation”. The concentration at 30 min in data set [3] (CD-1, mouse, brain, intravenous, 30 min, n=3, read-out: concentration in the brain) was 6.7 ng/g; in data set [3] (CD-1, mouse, plasma, intravenous, 30 min, n=3, read-out: Plasma concentration), 97 ng/mL. Also, the concentration at 60 min in data set [3] (CD-1, mouse, brain, intravenous, n=3, read-out: concentration in the brain) was found to be 5.8 ng/g; in data set [3] (CD-1, mouse, plasma, intravenous, n=3, read-out: Plasma concentration) it was 27 ng/mL. The Kp at 0.5 h in data set [3] (CD-1, mouse, brain/plasma, intravenous, 30 min, read-out: Calculated ratio of brain to plasma concentration) was 0.07. Moreover, the concentration at 180 min in data set [3] (CD-1, mouse, plasma, intravenous, 180 min, n=3) came to 4 ng/mL. The stability in solution entry in data set [4] is “stable”.
